Legend:
Oryctolagus cuniculus = species on record: Oryctolagus cuniculus; assay: Inhibition of U-46,619 induced contraction of isolated rabbit saphenous vein.; assay type: functional; conditions: read-out: pA2 (converted)
Homo sapiens = species on record: Homo sapiens; assay: Inhibitory concentration required for the inhibition of U-46,619 induced aggregation of human platelets.; assay type: functional
Thromboxane-A synthase = target: T1, Thromboxane-A synthase (Homo sapiens, UniProt P24557); assay: Anti-synthetase activity against TXA2 synthase in human whole blood assay; assay type: tissue-based
T1 sequence (P24557 whole entry): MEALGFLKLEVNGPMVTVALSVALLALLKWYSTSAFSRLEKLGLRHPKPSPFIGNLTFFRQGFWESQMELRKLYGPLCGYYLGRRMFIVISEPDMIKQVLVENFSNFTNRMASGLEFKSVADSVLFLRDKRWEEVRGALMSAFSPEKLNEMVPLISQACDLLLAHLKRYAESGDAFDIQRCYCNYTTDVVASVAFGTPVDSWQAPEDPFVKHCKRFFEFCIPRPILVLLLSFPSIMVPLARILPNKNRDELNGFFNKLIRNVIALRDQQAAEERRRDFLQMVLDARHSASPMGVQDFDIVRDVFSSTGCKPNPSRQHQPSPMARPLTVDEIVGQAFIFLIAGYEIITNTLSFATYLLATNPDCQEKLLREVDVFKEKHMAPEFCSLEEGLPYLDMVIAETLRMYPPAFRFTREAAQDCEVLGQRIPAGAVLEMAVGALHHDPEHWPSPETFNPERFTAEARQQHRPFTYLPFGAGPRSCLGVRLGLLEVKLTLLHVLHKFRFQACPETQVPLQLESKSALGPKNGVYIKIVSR

## O=C(O)CCc1cc(-c2cccnc2)cc2c1CCC(NS(=O)(=O)c1ccc(Cl)cc1)C2 (stereo not drawn)
Oryctolagus cuniculus
  Kb: 12.6 nM
Homo sapiens
  IC50: 670 nM
Thromboxane-A synthase
  IC50: > 5000 nM

## O=C(O)CCC/C=C\c1cc(Cc2cccnc2)cc2c1CCC(NS(=O)(=O)c1ccc(Cl)cc1)C2 (stereo not drawn)
Oryctolagus cuniculus
  Kb: 2.51 nM
Homo sapiens
  IC50: 90 nM
Thromboxane-A synthase
  IC50: 4200 nM

## O=C(O)CCC/C=C/c1cc(Cc2cccnc2)cc2c1CCC(NS(=O)(=O)c1ccc(Cl)cc1)C2 (stereo not drawn)
Oryctolagus cuniculus
  Kb: 2 nM
Homo sapiens
  IC50: 1200 nM
Thromboxane-A synthase
  IC50: > 5000 nM

## O=C(O)CCc1c(-c2cccnc2)ccc2c1CCC(NS(=O)(=O)c1ccc(Cl)cc1)C2 (stereo not drawn)
Oryctolagus cuniculus
  Kb: 0.2 nM
Homo sapiens
  IC50: 140 nM
Thromboxane-A synthase
  IC50: > 10000 nM

## CCCCCc1c(Cc2cccnc2)cc2c(c1CCC(=O)O)CCC(NS(=O)(=O)c1ccc(Cl)cc1)C2 (stereo not drawn)
Oryctolagus cuniculus
  Kb: 1.58 nM
Homo sapiens
  IC50: 270 nM
Thromboxane-A synthase
  IC50: 6600 nM

## CCCc1c(Cc2cccnc2)cc2c(c1CCC(=O)O)CCC(NS(=O)(=O)c1ccc(Cl)cc1)C2 (stereo not drawn)
Oryctolagus cuniculus
  Kb: 3.98 nM
Homo sapiens
  IC50: 63 nM
Thromboxane-A synthase
  IC50: 640 nM

## O=C(O)CCC/C=C/c1c(Cc2cccnc2)ccc2c1CCC(NS(=O)(=O)c1ccc(Cl)cc1)C2 (stereo not drawn)
Oryctolagus cuniculus
  Kb: 1.26 nM
Homo sapiens
  IC50: 450 nM
Thromboxane-A synthase
  IC50: 1100 nM

## O=C(O)CC/C=C/c1cc(Cc2cccnc2)cc2c1CCC(NS(=O)(=O)c1ccc(Cl)cc1)C2 (stereo not drawn)
Oryctolagus cuniculus
  Kb: 0.398 nM
Homo sapiens
  IC50: 9 nM
Thromboxane-A synthase
  IC50: > 10000 nM

## Cc1c(Cc2cccnc2)cc2c(c1/C=C/CCCC(=O)O)CCC(NS(=O)(=O)c1ccc(Cl)cc1)C2 (stereo not drawn)
Oryctolagus cuniculus
  Kb: 7.94 nM
Homo sapiens
  IC50: 460 nM
Thromboxane-A synthase
  IC50: 2900 nM

## Cc1c(Cc2cccnc2)cc2c(c1/C=C\CCCC(=O)O)CCC(NS(=O)(=O)c1ccc(Cl)cc1)C2 (stereo not drawn)
Oryctolagus cuniculus
  Kb: 10 nM
Homo sapiens
  IC50: 1000 nM
Thromboxane-A synthase
  IC50: 960 nM

## O=C(O)CCc1c(Cc2cccnc2)ccc2c1CCC(NS(=O)(=O)c1ccc(Cl)cc1)C2 (stereo not drawn)
Oryctolagus cuniculus
  Kb: 0.316 nM
Homo sapiens
  IC50: 20 nM
Thromboxane-A synthase
  IC50: > 10000 nM

## O=C(O)CCc1c2c(cc(Cc3cccnc3)c1-c1ccccc1)CC(NS(=O)(=O)c1ccc(Cl)cc1)CC2 (stereo not drawn)
Oryctolagus cuniculus
  Kb: 0.794 nM
Homo sapiens
  IC50: 180 nM
Thromboxane-A synthase
  IC50: > 10000 nM

## Cc1c(Cc2cccnc2)cc2c(c1CCC(=O)O)CCC(NS(=O)(=O)c1ccc(Cl)cc1)C2 (stereo not drawn)
Oryctolagus cuniculus
  Kb: 158 nM
Homo sapiens
  IC50: 610 nM
Thromboxane-A synthase
  IC50: 850 nM

## O=C(O)CCC/C=C\c1c(Cc2cccnc2)ccc2c1CCC(NS(=O)(=O)c1ccc(Cl)cc1)C2 (stereo not drawn)
Oryctolagus cuniculus
  Kb: 0.2 nM
Homo sapiens
  IC50: 160 nM
Thromboxane-A synthase
  IC50: 350 nM

## O=C(O)CC/C=C/c1c(Cc2cccnc2)ccc2c1CCC(NS(=O)(=O)c1ccc(Cl)cc1)C2 (stereo not drawn)
Oryctolagus cuniculus
  Kb: 0.00794 nM
Homo sapiens
  IC50: 47 nM
Thromboxane-A synthase
  IC50: 1400 nM

## O=C(O)CCc1cc(Cc2cccnc2)cc2c1CCC(NS(=O)(=O)c1ccc(Cl)cc1)C2 (stereo not drawn)
Oryctolagus cuniculus
  Kb: 0.2 nM
Homo sapiens
  IC50: 7 nM
Thromboxane-A synthase
  IC50: 1100 nM

From ChEMBL document CHEMBL1130823, “New tetrahydronaphthalene derivatives as combined thromboxane receptor antagonists and thromboxane synthase inhibitors” (Bioorg Med Chem Lett, 1998)
